Patent publication US6921665B2, “Selective antibody targeting of undifferentiated stem cells” (Roslin Institute (Edinburgh), priority 2001, dated 2005)

Key:
[1] = tested on: normal BJ cells; test: Ganciclovir treatment in vitro of normal cells carrying hTERT promoter/tk constructs; assay type: cell-based
Description: (§1) The ability of the hTERT promoter to specifically drive the expression of the thymidine kinase (tk) gene in tumor cells was tested using a variety of constructs: One construct, designated pGRN266, contains an EcoRI-FseI PCR fragment with the tk gene cloned into the EcoRI-FseI sites of pGRN263. pGRN263, containing approximately 2.5 kb of hTERT promoter sequence, is similar to pGRN150, but contains a neomycin gene as selection marker. pGRN267 contains an EcoRI-FseI PCR fragment with the tk gene cloned into the EcoRI-FseI sites of pGRN264. pGRN264, containing approximately 210 bp of hTERT promoter sequence, is similar to pGRN176, but contains a neomycin gene as selection marker. pGRN268 contains an EcoRI-XbaI PCR fragment with the tk gene cloned into the EcoRI-XbaI (unmethylated) sites of pGRN265. pGRN265, containing approximately 90 bp of hTERT promoter sequence, is similar to pGRN175, but contains a neomycin gene as selection marker.
(§2) These hTERT promoter/tk constructs, pGRN266, pGRN267 and pGRN268, were re-introduced into mammalian cells and tk/+stable clones (and/or mass populations) were selected. […] Ganciclovir treatment had no effect on normal BJ cells.

[2] = tested on: Undifferentiated H1 cells; test: Total cell number of undifferentiated H1 hES cells by flow cytometry after TPAC vector and/or GCV; assay type: cell-based, human; conditions: GCV alone, 30 μM
Description: (§3) Undifferentiated H1 cells were plated into 24 well plates (1 confluent well of a 6 well plate split into 24 wells of a 24 well plate). After 48 h, some wells were infected with the TPAC vector at an MOI of 30 or 100. Four h after addition of the viral vector, medium was exchanged for new mouse embryonic fibroblast conditioned medium (mEF-CM); some wells received medium supplemented with 30 μM ganciclovir (GCV). Cells exposed to GCV were re-fed with mEF-CM containing 30 μM GCV daily for 4 days. On days 2,3, and 4 after the initiation of GCV treatment, wells were harvested and analyzed by flow cytometry to assess changes in 1) total cell number and 2) cell viability (measured by PI exclusion).

[3] = tested on: hES lines H1 and H7; test: Comparison of different hES lines, total cell number after pGRN376 plus GCV; assay type: cell-based, human; conditions: two hES lines
Description: Undifferentiated hES of lines designated Hi and H7 cells were plated into 24 well plates (1 confluent well of a 6 well plate split into 24 wells of a 24 well plate). […] Four h after addition of the viral vector, medium was exchanged for new mEF-CM; some wells received medium supplemented with 20 μM GCV. Cells exposed to GCV were re-fed with mEF-CM containing GCV daily for 3 days. On day 4 after the initiation of GCV treatment, wells were harvested and analyzed by flow cytometry to assess changes in total cell number.

[4] = tested on: TPAC vector treated hES cells; test: Titration of GCV in TPAC vector treated hES cells; assay type: cell-based, human; conditions: pGRN376 MOI 30; GCV 5-40 μM tested; day 2
Description: Undifferentiated Hi cells were plated into 24 well plates (1 confluent well of a 6 well plate split into 24 wells of a 24 well plate). After 48 h, some wells were infected with pGRN376 at an MOI of 30. Four h after addition of the viral vector, medium was exchanged for new mEF-CM; some wells received medium supplemented with 5, 10, 20, 30, or 40 μM ganciclovir (GCV). Cells exposed to GCV were re-fed with mEF-CM containing GCV daily for 2 days. On day 2 after the initiation of GCV treatment, wells were harvested and analyzed by flow cytometry to assess changes in total cell number, and cell viability (measured by PI exclusion).

[5] = tested on: Undifferentiated H1 cells; test: Cell viability (PI exclusion, cells in ES gate) of H1 hES cells after TPAC vector and/or GCV; assay type: cell-based, human; conditions: GCV alone
Description: as §3

[6] = tested on: H9 cell line; test: Sensitivity of the H9 line to GCV after TPAC vector treatment; assay type: cell-based, human; conditions: subsequent studies
Description: Thus, different hES cell lines respond to the TPAC vector.

[7] = tested on: tumor lines 143B, 293, HT1080, Bxpc-3', DAOY and NIH3T3; test: Ganciclovir treatment in vitro of tk/+ tumor lines carrying hTERT promoter/tk constructs; assay type: cell-based; conditions: cells carrying pGRN266, pGRN267 or pGRN268
Description: as §1, §2

[8] = tested on: hTERT expression; test: RT-PCR for hTERT expression after differentiation factors; assay type: cell-based, human; conditions: after exposure of hES cells to the factor
Description: For radioactive relative quantification of individual gene products, QuantumRNA™ Alternate18S Internal Standard primers (Ambion, Austin Tex., USA) were employed according to the manufacturer's instructions. Briefly, the linear range of amplification of a particular primer pair was determined, then coamplified with the appropriate mixture of alternate18S primers:competimers to yield PCR products with coinciding linear ranges. Before addition of AmpliTaq™ (Roche) to PCR reactions, the enzyme was pre-incubated with the TaqStar™ antibody (ProMega) according to manufacturer's instructions. Radioactive PCR reactions were analyzed on 5% non-denaturing polyacrylamide gels, dried, and exposed to phosphoimage screens (Molecular Dynamics) for 1 hour. Screens were scanned with a Molecular Dynamics Storm 860 and band intensities were quantified using ImageQuant™ software. Results are expressed as the ratio of radioactivity incorporated into the hTERT or OCT-4 band, standardized to the radioactivity incorporated into the 18s band.
Primers and amplification conditions for particular markers are as follows. […]

[9] = tested on: hES cells; test: Neuron formation from hES cells with neurotrophin growth factors (β-tubulin positive cell count); assay type: cell-based, human; conditions: 7 days of differentiation
Description: The effect of several members of the neurotrophin growth factor family was examined. hES cells were differentiated by harvesting with collagenase, dissociating, and reseeding onto poly-ornithine coated cover slips. The cells were plated into DMEM/F12+N2+10% FBS overnight. The following day, the serum was removed from the medium and replaced with 10 ng/mL human bFGF and the growth factor being tested. After 24 hours, bFGF was removed from the medium. These cultures were fed every other day. They were fixed after 7 days of differentiation and immunostained for analysis. The number of neurons was evaluated by counting cells positive for β-tubulin. Cultures maintained in the presence of 10 ng/mL brain derived neurotrophic factor (BDNF) formed approximately 3-fold more neurons than the control cultures. Cultures maintained in neurotrophin-3 (1 ng/mL) formed approximately 2-fold more neurons than control cultures.

Nc1nc(O)c2ncn(COC(CO)CO)c2n1 [GCV, ganciclovir]
effect of ganciclovir [1]: no effect | cells as percent of the control wells ([2]; day 2): approximately 55% | cells as percent of the control wells ([2]; day 4): 40% | sensitivity to GCV after treatment with the TPAC vector [3]: sensitive | optimal GCV concentration [4]: ~20 µM | cells in ES gate ([5]; day 2 (control 85%)): 75% | cells in ES gate ([5]; day 3 (control 82%)): 68% | cells in ES gate ([5]; day 4 (control 65%)): 50% | sensitivity to GCV after TPAC vector treatment [6]: highly sensitive | effect of ganciclovir on tk/+ cells [7]: selective destruction of all tumor lines tested

C[S+](C)[O-] [dimethyl sulfoxide]
expression of hTERT [8]: markedly decreased

B1: BDNF: brain derived neurotrophic factor, member of the neurotrophin growth factor family (protein, UniProt P23560 19-247, looked up)
Neurotrophic factor BDNF …: APMKEANIRGQGGLAYPGVRTHGTLESVNGPKAGSRGLTSLADTFEHVIEELLDEDQKVRPNEENNKDADLYTSRVMLSSQVPLEPPLLFLLEEYKNYLDAANMSMRVRRHSDPARRGELSVCDSISEWVTAADKKTAVDMSGGTVTVLEKVPVSKGQLKQYFYETKCNPMGYTKEGCRGIDKRHWNSQCRTTQSYVRALTMDSKKRIGWRFIRIDTSCVCTLTIKRGR
neurons formed relative to control cultures ([9]; 10 ng/mL): approximately 3 fold

B2: neurotrophin-3: member of the neurotrophin growth factor family (protein, UniProt P20783 139-257, looked up)
Neurotrophin-3: YAEHKSHRGEYSVCDSESLWVTDKSSAIDIRGHQVTVLGEIKTGNSPVKQYFYETRCKEARPVKNGCRGIDDKHWNSQCKTSQTYVRALTSENNKLVGWRWIRIDTSCVCALSRKIGRT
neurons formed relative to control cultures ([9]; 1 ng/mL): approximately 2 fold
